Laboratory results reported in patent US11180767B2, “Protease deficient filamentous fungal cells and methods of use thereof” (GLYKOS FINLAND OY, priority 2012, dated 2021).
Non-standard residues stand in square brackets, D forms with d. Residues, ends and D or L forms follow the SMILES beside them. *: point of attachment. Sta = CC(C)C[C@H](N)[C@@H](O)CC(=O)O; Isovaleryl = CC(C)CC(=O)*

How the values were obtained:
[1] = system: M369 human growth hormone strain; experiment: hGH production in 24 well cultures with inhibitors and supplements; format: cell-based, Trichoderma reesei; details: 24 well culture, pH 4.5, day 4 immunoblot
Procedure: To evaluate what inhibitors would best stabilize production of hGH, 24 well cultures of these strains were performed. The M369 human growth hormone strain (Δpep1Δtsp1Δslp1Δgap1Δgap2) was grown along with single components or with combinations of the following: trypsin and subtilisin inhibitor SBTI, the acidic protease inhibitor peptide SIP, the acidic protease inhibitor peptide LIP, the aspartic protease inhibitor pepstatin A free peptide, pepstatin A immobilized to agarose beads, the trypsin and subtilisin inhibitor BBI from lima bean, the […] chymostatin, and BSA. Three independent wells were chosen for control wells where no inhibitors or supplements were added. These two strains were grown in 3 ml of TrMM with diammonium citrate without ammonium sulfate, 100 mM PIPPS, 20 g/L spent grain extract, 40 g/L lactose adjusted to pH 4.5. The 24 well plates were shaken at 800 rpm, 85% humidity, and 28° C. The cultures were grown for 6 days and covered with an air permeable membrane.
Inhibitors were added first on day 1 and then daily beginning on day 3. 100 μl samples were taken from the culture wells beginning on day 3. The mycelium was spun down for 5 minutes at 13 k and the supernatant collected. From the culture supernatant 12 μl was loaded in a 4-20% SDS PAGE gel and immunoblotting made on nitrocellulose with mouse anti-hGH antibody (2 μg/ml) and goat anti-mouse IgG AP conjugated secondary antibody diluted 1:10,000 in TBST.
Estimating the expression levels relative to the 200 ng control sample, the control wells produced between 3-6 mg/L of hGH, the BSA (0.25%)/SIP (50 μM)/8BTI (0.2 mg/ml) treatment produced 24.5 mg/L, the SIP (50 μM)/8BTI (0.2 mg/ml) treatment produced 26.6 mg/L, and the pepstatin A beads/SBTI (0.2 mg/ml) addition yielded 24.5 mg/L of hGH. Therefore, using a combination of inhibitors and additives worked best increasing the production levels by at least 4-fold. The critical parameter was to include an aspartic protease inhibitor into the mix.

[2] = system: SIP purified proteases (PEP2, PEP3, PEP4, PEP5, GAP1, SLP2); experiment: Protease activity of SIP purified fractions against casein with inhibitors (EnzChek); format: biochemical, Trichoderma reesei; details: pH 5.5
Procedure: Protease activity was then tested against casein both in the presence and absence of protease inhibitors. Protease activity against casein was tested using the EnzChek protease assay kit (Molecular probes #E6638, green fluorescent casein substrate). The working stock solution was prepared by diluting the stock to 10 μg ml in 50 mM sodium citrate, pH 5.5. The purified protease fractions (10 μl) were diluted with […] of sodium citrate, pH 5.5. 100 μl of the diluted substrate was combined with the diluted protease fractions in a 96 well sample plate. The plate was then covered and kept at 37° C. for one to three hours. Fluorescence readings were taken at one, two, and three hours with a Varioskan fluorescent plate reader (Thermo Scientific) using 485 nm excitation and 530 nm emission.
The SIP inhibitor peptide, pepstatin A, LIP peptide, SBTI, and chymostatin were used as inhibitors. […] SIP, LIP, and pepstatin A were used at a concentration of 60 μM, and SBTI was used at a concentration of 200 μg/ml.

Structure (SMILES): CC(C)CC(=O)N[C@H](C(=O)N[C@H](C(=O)N[C@@H](CC(C)C)[C@@H](O)CC(=O)N[C@@H](C)C(=O)N[C@@H](CC(C)C)[C@@H](O)CC(=O)O)C(C)C)C(C)C [pepstatin A] (Isovaleryl-VV[Sta]A[Sta]-OH)
- effect on hGH production [1]: negative effect on the growth hormone production
- proteases inhibited ([2]; SIP, LIP, pepstatin A 60 μM, SBTI 200 μg/ml): inhibited only aspartic proteases
- inhibition of SIP purified protease activity against casein ([2]; FIG. 11): a large portion of the SIP protease activity was inhibited
